Consider 5 compounds from patent publication US8765953B2, “Compounds and methods for the treatment of pain and other diseases” (Aquilus Pharmaceuticals, Inc., priority 2008, dated 2014).

Series [1] relates to L5 spinal nerve ligation (SNL) neuropathic pain model. The following applies: in vivo; cited from earlier work.
Series [2] has as its target MMP-12 (Homo sapiens, UniProt P39900). The conditions noted are these: cited from earlier work.
For series [3], the target named is T1, MMP-2 (Homo sapiens, UniProt P08253).
T1 sequence (P08253 110-660): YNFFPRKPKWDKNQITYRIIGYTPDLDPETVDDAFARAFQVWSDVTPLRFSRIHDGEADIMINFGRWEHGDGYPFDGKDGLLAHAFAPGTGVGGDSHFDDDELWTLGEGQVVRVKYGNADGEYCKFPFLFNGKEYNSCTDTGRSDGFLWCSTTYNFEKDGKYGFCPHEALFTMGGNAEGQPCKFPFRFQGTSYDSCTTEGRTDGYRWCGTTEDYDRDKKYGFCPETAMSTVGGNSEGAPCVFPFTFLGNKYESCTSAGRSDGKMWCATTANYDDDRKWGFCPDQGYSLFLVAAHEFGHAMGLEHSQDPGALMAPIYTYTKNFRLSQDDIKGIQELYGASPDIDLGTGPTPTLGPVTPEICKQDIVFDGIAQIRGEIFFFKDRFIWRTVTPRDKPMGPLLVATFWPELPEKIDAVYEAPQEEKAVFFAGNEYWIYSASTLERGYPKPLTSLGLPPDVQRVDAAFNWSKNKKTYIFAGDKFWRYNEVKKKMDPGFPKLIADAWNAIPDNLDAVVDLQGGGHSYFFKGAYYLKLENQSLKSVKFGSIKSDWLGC
The conditions noted are these: cited from earlier work.

The target in series [4] is MMP-8 (Homo sapiens, UniProt P22894). The following applies: cited from earlier work.
Sequence of MMP-8 (P22894 101-467, species assumed): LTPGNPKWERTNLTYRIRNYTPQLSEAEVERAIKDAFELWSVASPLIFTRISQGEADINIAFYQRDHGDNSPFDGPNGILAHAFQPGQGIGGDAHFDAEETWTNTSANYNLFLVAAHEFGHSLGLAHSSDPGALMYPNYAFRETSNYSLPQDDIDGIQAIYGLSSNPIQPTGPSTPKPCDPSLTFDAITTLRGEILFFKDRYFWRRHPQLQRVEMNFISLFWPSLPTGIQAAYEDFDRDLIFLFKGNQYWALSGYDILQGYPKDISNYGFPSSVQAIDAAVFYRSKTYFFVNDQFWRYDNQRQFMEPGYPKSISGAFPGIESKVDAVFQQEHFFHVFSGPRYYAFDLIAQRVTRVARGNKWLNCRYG
For series [5], the target named is MMP-13 (Homo sapiens, UniProt P45452). The following applies: cited from earlier work.
The target in series [6] is MMP-9 (Homo sapiens, UniProt P14780). The conditions noted are these: cited from earlier work.
Sequence of MMP-9 (P14780 94-707, species assumed): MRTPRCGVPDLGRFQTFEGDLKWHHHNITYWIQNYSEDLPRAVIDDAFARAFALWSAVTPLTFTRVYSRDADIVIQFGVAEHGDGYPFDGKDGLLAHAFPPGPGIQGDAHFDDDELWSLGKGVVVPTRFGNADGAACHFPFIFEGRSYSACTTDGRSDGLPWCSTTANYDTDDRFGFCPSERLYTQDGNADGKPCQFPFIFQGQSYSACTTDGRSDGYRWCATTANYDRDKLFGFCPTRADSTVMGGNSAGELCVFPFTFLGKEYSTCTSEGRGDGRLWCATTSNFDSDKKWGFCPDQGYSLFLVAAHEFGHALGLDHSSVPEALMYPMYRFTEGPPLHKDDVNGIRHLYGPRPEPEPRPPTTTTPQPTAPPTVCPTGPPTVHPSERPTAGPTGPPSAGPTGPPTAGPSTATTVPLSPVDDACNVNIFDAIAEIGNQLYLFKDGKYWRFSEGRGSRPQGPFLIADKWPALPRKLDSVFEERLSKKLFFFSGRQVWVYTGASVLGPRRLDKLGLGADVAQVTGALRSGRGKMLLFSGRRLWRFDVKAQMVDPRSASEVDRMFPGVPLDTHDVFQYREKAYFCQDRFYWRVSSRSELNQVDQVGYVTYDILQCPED
Series [7] deals with MMP-3 (Homo sapiens, UniProt P08254). The following applies: cited from earlier work.
Sequence of MMP-3 (P08254 100-477, species assumed): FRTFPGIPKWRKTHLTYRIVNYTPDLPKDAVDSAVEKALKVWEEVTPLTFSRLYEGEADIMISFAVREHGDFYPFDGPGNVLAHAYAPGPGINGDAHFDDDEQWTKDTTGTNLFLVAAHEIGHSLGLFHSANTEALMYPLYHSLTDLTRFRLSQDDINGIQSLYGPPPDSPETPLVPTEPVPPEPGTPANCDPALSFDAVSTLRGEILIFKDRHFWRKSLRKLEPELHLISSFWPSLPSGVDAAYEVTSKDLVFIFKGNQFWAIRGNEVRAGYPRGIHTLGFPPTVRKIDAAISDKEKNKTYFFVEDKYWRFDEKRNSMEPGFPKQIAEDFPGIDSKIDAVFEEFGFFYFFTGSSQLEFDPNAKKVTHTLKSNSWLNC
The target in series [8] is T2, MMP-7 (Homo sapiens, UniProt P09237).
T2 sequence (P09237 95-267): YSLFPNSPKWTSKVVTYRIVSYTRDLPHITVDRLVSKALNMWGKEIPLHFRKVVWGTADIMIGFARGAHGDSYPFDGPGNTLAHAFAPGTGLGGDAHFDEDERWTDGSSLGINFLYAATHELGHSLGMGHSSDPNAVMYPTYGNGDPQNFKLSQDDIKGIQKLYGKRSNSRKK
The conditions noted are these: cited from earlier work.

Series [9] has as its system rat formalin test. The following applies: cited from earlier work.
The subject of series [10] is humans. The following applies: humans (S-3304: animals or man); cited from earlier work.
For series [11], the system named is mechanical nociception. The following applies: in vivo; cited from earlier work.
A short description of series [12]: In-vitro mouse microsomal stability. The conditions noted are these: mouse microsomes, 1 microMolar compound, at T = 60 minutes. It counts as in vitro ADME. How it is done:
Human and mouse microsomal stability was determined for select compounds following the method of Houston (Houston, J. B; Biochem. Pharmacol. 47, (1994),1469).
1 μM concentration of compound and separate human and mouse microsomes (0.3 mg/mL, BD bioscience) were used in the in-vitro assay. To ensure proper energy supply for microsomal degradation of compound, an energy regenerating system comprised of 100 mM potassium phosphate, 2 mM NADPH, 3 mM MgCl2, pH=7.4. and the microsomal protein is added to each sample and the resulting suspension is then incubated in duplicate for 60 min at 37° C. in a rotary shaker. A control is run for each test agent in duplicate omitting NADPH to detect NADPH-free degradation. At T=0 and T=60 min., an aliquot is removed from each experimental and control reaction and then mixed with an equal volume of ice-cold Stop Solution (consisting of 0.3% acetic acid in acetonitrile containing haloperidol and diclofenac as internal standards). Stopped reactions are then incubated for at least ten minutes at −20° C., and an additional volume of water is then added. The samples are then centrifuged to remove precipitated protein, and the supernatants are then analyzed by LC-MS/MS to determine the percentage of compound remaining. The LC-MS/MS system used was an Agilent 6410 mass spectrometer coupled with an Agilent 1200 HPLC and a CTC PAL chilled autosampler, all controlled by MassHunter software (Agilent), or an ABI2000 mass spectrometer coupled with an Agilent 1100 HPLC and a CTC PAL chilled autosampler, all controlled by Analyst software (ABI). After separation on a C18 reverse phase HPLC column (Agilent, Waters, or equivalent) using an acetonitrile-water gradient system, peaks were analyzed by mass spectrometry (MS) using ESI ionization in MRM mode.

Series [13] relates to spinal nerve ligation (SNL) mouse model. In words: Intrathecal (i.t.) SNL-mouse model of neuropathic pain, von Frey mechanical allodynia. It counts as in vivo, FVB male mice. An excerpt:
(§1) To measure the neuropathic pain inhibiting affects of the MMP inhibitors of the present invention, the spinal nerve ligation (SNL) mouse model was run on a select number of compounds. This model which began with the work of Bennet and coworkers (Bennet, G. J. et al. Pain, 33, (1988), 87-107) and was optimized by Kim and Chung (Kim, S. H.; Chung, J. M. Pain, 50, (1992), 355-363) entails first, under magnification, the removal of one-third of the transverse process and then identifying and then dissecting free the L5 spinal nerve from the adjacent L4 spinal nerve in the mouse. The L5 spinal nerve is then tightly ligated using 6.0 silk suture. The nerve injury leads to hyperalgesia which manifests itself by enhanced responses to mechanical, heat and/or cooling stimuli. In this case, mechanical hyperalgesia is tested via Von Frey monofilaments in which filaments of varying thicknesses and bending force are individually applied to the plantar surface of the foot of the mouse. The threshold force necessary for paw withdrawal decreases dramatically after the nerve surgery. Potent pain inhibitors will reverse this affect resulting in greater force needing to be applied to cause the rodent paw to withdrawal.
Following preoperative baseline (Day −2) paw threshold measurement, FVB male mice were subjected to SNL injury (Day −1). The next day (Day 0) after SNL surgery, the animals were tested for post-operative baseline threshold measurements for mechanical allodynia; and the animals were then randomly assigned to one of 3 treatment groups (see Table 9). Over the course of the study, paw withdrawal threshold of these animals was measured in response to mechanical stimulation using the von Frey Monofilament Test.
To avoid systemic effects of the MMP inhibitors, the MMP inhibitors of the present invention were delivered into the cerebral spinal fluid (CSF) space around lumbosacral spinal cord via intrathecal (i.t.) administration, with the idea of targeting MMPs in the DRG, spinal cord, and spinal CSF. Intrathecal MMP inhibitor administration could then target not only spinal cord cells but also DRG cells. Each intrathecal (i.t.) injection was carried out according to the technique of Hylden and Wilcox (Hylden J L, Wilcox G L. Eur. J. Pharmacol., 67, (1980), 313-6) 5.2 mg of each of the MMP inhibitors were first dissolved in 140 microliters of DMSO and then put into 1260 microliters of 0.5% hydroxypropyl cellulose (HPC) in water to make a fine suspension composed of compound in 10% DMSO-0.5% hydroxypropyl cellulose. 10 microliters of the mixture was injected into the intrathecal space of male FVB mice (weighing 22-25 grams each and obtained from the Jackson Laboratories, Bar Harbor, Me.), by lumbar puncture in a volume of 10 μl/mouse using a Hamilton microsyringe via a 30 gauge needle inserted between lumbar vertebrae 5 and 6. In brief, each animal was held firmly by the pelvic girdle in one hand, while the needle was inserted into the tissue on the right side of the L5 or L6 spinous process. The needle was moved forward and slipped into the groove between the spinous process and transverse process and gently moved forward to the intervertebral space at ˜10° angle. As the needle was inserted (˜0.5 cm) within the vertebral column a tail flick was evident, and the solution was then injected.
Tactile Allodynia Test. Mechanical allodynia was measured using the calibrated von Frey filaments (Semmes-Weinstein monofilaments; Stoelting, Wood Dale, Ill., U.S.A.). The plantar surface of the left injured paw of each animal was tested as described by Chaplan et al. (Journal of Neuroscience Methods, 53, (1994), 55-63). The Fifty percent paw withdrawal threshold response was determined by sequentially increasing or decreasing the stimulus strength according to the “up-down method” of Dixon (Annual Review Pharmacology Toxicology, 20, (1980), 441-462). […]

Series [14] has the same test system. In words: Intraperitoneal (i.p.) SNL-mouse model of neuropathic pain, von Frey mechanical allodynia. It counts as in vivo.
Text: as §1
Tactile Allodynia Test. Mechanical allodynia was measured using the calibrated von Frey filaments (Semmes-Weinstein monofilaments; Stoelting, Wood Dale, Ill., U.S.A.). The plantar surface of the left injured paw of each animal was tested as described by Chaplan et al. (Journal of Neuroscience Methods, 53, (1994), 55-63). The Fifty percent paw withdrawal threshold response was determined by sequentially increasing or decreasing the stimulus strength according to the “up-down method” of Dixon (Annual Review Pharmacology Toxicology, 20, (1980), 441-462). For mice, […] von Frey filaments were used, with approximately equal logarithmic incremental bending forces (von Frey number: 1.65, 2.36, 2.44, 2.83, 3.22, 3.61, 3.84, 4.08, and 4.17; equivalent to 0.005, 0.02, 0.03, 0.07, 0.17, 0.41, 0.69, 1.20, and 1.48 g force, respectively).
Prior to testing, each animal was placed in a suspended clear plastic chamber with a wire mesh bottom and acclimated for 15 minutes. Testing was initiated with the 0.07 g (handle marking of 2.83) applied perpendicularly to the plantar surface of the affected hind paw; each filament was applied with enough pressure to cause a buckle effect. The absence of a paw lifting/withdrawal response after 6 s prompted the use of the next higher weight filament. Paw withdrawal, indicating a positive response, prompted the use of a weaker filament. After the initial positive response (i.e., paw withdrawal), the testing continued for four additional measurements, and was used to calculate the response threshold. Four consecutive positive responses received a score of 0.001 g, and five consecutive negative responses (i.e., no paw withdrawal) received a score of 1.5 g.
Analyses for Tactile Allodynia Testing. The 50% paw withdrawal threshold was calculated (PWT; Luo and Calcutt, J. Pharmacology Experimental Therapeutics, 303(3), (2002), 1199-1205; Chaplan et al. Journal of Neuroscience Methods, 53, (1994), 55-63) using the formula: 10(Xf+κδ)/10,000 where Xf is the final von Frey filament used (log units), κ is a value that analyzes the response pattern (taken from the table published by Chaplan et al., 1994), and δ is the mean difference between stimuli (log units).
Except for the mode of administration, number of mice/group and the number of injections and amount of compound per injection, the rest of the study was done in the same manner (in regards to the surgeries and tactile allodynia testing and analysis) as Experiment 110. 3.2 mg of each of the MMP inhibitors #5 and #118 were dissolved in 320 microliters of DMSO. To the solution was then added 32 microliters of Tween 80, followed by 2850 microliters of phosphate buffered saline (PBS). This gave a final concentration of 10% DMSO, 1% Tween and 1 mg/ml compound. […]

[15] abbreviates: i.p. 100 μl/mouse daily (approx. 3.3 mg/Kg), day 1-5.

As usually defined, the Ki is a measure of affinity in units of concentration, obtained from inhibition or displacement.

Sequence of MMP-12 (P39900 106-470, species assumed): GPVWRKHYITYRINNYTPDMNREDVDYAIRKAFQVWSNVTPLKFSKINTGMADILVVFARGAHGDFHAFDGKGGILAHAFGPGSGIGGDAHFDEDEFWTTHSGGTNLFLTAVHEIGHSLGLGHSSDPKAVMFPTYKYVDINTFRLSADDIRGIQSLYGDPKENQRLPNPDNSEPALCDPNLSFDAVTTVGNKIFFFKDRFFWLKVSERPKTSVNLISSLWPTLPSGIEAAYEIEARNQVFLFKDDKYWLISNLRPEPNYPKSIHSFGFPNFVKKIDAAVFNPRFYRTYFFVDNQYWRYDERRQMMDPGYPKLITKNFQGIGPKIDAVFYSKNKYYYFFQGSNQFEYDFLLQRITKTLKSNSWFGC

For the compound “TIMP-1: endogenous matrix metalloproteinase inhibitor”, the “Effect on neuropathic pain in the SNL model” value in [1] is on record as “suppressed neuropathic pain”.

With `CCOCOC[C@H](C[C@H](C)C(=O)NO)NC(=O)c1ccc(Oc2ccccc2)cc1` [ONO-4817], the inhibition constant (Ki) was 0.45 nM in [2]; 0.73 nM in [3]; 1.1 nM in series [4]; 1.1 nM in series [5]; 2.1 nM in [6]; 42 nM in series [7]. For the same compound, in series [8], the inhibition constant (Ki) was 2500 nM. The “Effect on the analgesic effect of intrathecal MMP-2 (Phase I agitation behavior)” value in series [9] (MMP-2 injected intrathecally) is “antagonized”. In [9] (inhibitor given alone), the “Effect on the rat formalin test when given alone” value is “no affect”.

For the compound `CNC(=O)[C@@H](NC(=O)[C@H](CC(C)C)[C@H](O)C(=O)NO)C(C)(C)C` [Marimastat], in [10], the Musculoskeletal toxicities result is “time-dependent and dose-dependent musculoskeletal toxicities (arthralgia, myalgia, tendinitis)”.

Regarding `CNC(=O)[C@H](Cc1c[nH]c2ccccc12)NC(=O)[C@@H](CC(=O)NO)CC(C)C` [GM6001], the “Effect on mechanical nociception” value in series [11] is given as “attenuate mechanical nociception”.

For the compound `[2H]C([2H])([2H])c1ccc(C#Cc2ccc(S(=O)(=O)N[C@H](Cc3c[nH]c4ccccc34)C(=O)O)s2)cc1` [Compound 118, (R)-3-(1H-Indol-3-yl)-2-[5-(4-trideuteromethyl-phenylethynyl)-thiophene-2-sulfonylamino]-propionic acid-(D3, 98%)], the “% Mean Remaining Parent with NADPH (%)” value in [12] (with NADPH) is listed as 85%. In addition, the “% Mean Remaining Parent without NADPH (%)” value in [12] (without NADPH (control)) is reported as 91%. In addition, in [13] (i.t. 10 μl/mouse daily day 1-6), the “Paw withdrawal threshold, mean, Day 5” value stood at 0.320 grams and the “Paw withdrawal threshold, mean, Day 7” value was 1.024 grams. In addition, the “Paw withdrawal threshold, mean, Day 1” value in series [13] (i.t. 10 μl/mouse daily day 1-6, testing 2 hr after first i.t. injection) turned out to be 0.321 grams. For the same compound, the “Reversal of allodynia” value in series [13] (i.t. administration, as compared to vehicle and compound #5) was “almost complete reversal of allodynia”. Further, the “Paw withdrawal threshold, mean, Day 0 Postoperative Baseline” value in series [13] (i.t. study, post operative injury baseline, before treatment) was 0.077 grams. Further, the “Paw withdrawal threshold, mean, Day(-2) Pre-operative Baseline” value in [13] (i.t. study, testing prior to SNL injury, before treatment) was 1.268 grams. In series [14] (setting [15]), the “Paw withdrawal threshold, mean, Day 1” value is 0.170 grams; the “Paw withdrawal threshold, mean, Day 2” value came out at 0.350 grams; the “Paw withdrawal threshold, mean, Day 5” value worked out at 1.470 grams; the “Paw withdrawal threshold, mean, Day 6” value is listed as 0.867 grams. In addition, the “Paw withdrawal threshold, mean, Day 7” value in [14] (setting [15]) was 0.250 grams. Moreover, the “Reversal of mechanical allodynia” value in series [14] (i.p. administration, by day 5) is recorded as “complete reversal of mechanical alodynia”. For the same compound, in series [14] (i.p. study, baseline before treatment), the “Paw withdrawal threshold, mean, Day 0 Postoperative Baseline” value was 0.096 grams.
